In US7736624B2, “Methods and compositions for diagnostic and therapeutic targeting of COX-2” (priority 2006, dated 2010):
Where two headings read alike, the source gives them in different places.

Tests used:
Fluorescence in buffer = type: physicochemical; settings: for Fluor. λem: emission; for Fluor. λex: excitation
COX-2 = molecular target: T1, COX-2 (Homo sapiens, UniProt P35354); experiment: IC50 determinations using purified enzymes (TLC assay), COX-2; type: biochemical; parameters: made in house; host or cells: Sf9 insect cells; settings: assayed against purified enzymes, read-out: IC50 COX-2
T1 sequence (P35354 18-604): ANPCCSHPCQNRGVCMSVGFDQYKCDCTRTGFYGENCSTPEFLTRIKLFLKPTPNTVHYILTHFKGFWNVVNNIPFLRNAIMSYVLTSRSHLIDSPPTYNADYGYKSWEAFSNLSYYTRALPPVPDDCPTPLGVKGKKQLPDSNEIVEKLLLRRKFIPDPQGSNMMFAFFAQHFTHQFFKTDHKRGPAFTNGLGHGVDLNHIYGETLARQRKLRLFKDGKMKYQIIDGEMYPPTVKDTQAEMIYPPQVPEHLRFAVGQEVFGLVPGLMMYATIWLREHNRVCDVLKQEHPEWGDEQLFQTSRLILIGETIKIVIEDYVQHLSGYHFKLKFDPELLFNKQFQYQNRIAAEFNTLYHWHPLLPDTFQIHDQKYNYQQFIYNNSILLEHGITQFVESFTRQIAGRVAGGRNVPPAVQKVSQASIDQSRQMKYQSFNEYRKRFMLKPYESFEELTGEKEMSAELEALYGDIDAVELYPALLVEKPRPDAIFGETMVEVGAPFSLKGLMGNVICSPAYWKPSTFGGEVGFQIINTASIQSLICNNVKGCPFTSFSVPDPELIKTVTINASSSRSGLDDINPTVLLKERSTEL
Source text: (§1) Those skilled in the art will appreciate that an evaluation of the selectivity and efficacy of binding of the NSAID derivative to the COX-2 enzyme, e.g., after the derivative is synthesized, can be desirable. […] One example of an in vitro screening method takes advantage of the fact that both human and murine recombinant COX-2 can be expressed and isolated in pure form from an Sf9 cell expression system. […] Alternatively, membrane preparations from outdated human platelets can provide a source of human COX-1. […] The reaction is stopped by the addition of ethanol/methanol/1 M citrate, pH 4.0 (30:4:1). The extracted products are separated by thin layer chromatography (TLC), which allows quantitation of total product formation as well as assessment of product distribution. This assay is useful to define IC50 values for inhibition of either enzyme, and to determine time-dependency of inhibition. It also provides information concerning changes in products formed as a result of inhibition.
(§2) Reactions were terminated by solvent extraction in Et2O/CH3OH/1 M citrate, pH 4.0 (30:4:1). The phases were separated by centrifugation at 2000 g for 5 minutes and the organic phase was spotted on a 20×20 cm TLC plate (Lieselgel 60, EMD Chemicals, Inc., Gibbstown, N.J., United States of America). The plate was developed in EtOAc/CH2Cl2/glacial AcOH (75:25:1) at 4° C. Radiolabeled prostanoid products were quantitatively determined with a radioactivity scanner available from Bioscan, Inc. (Washington, D.C., United States of America). The percentage of total products observed at different concentrations of the presently disclosed compositions was divided by the percentage of products observed for protein samples preincubated for the same amount of time with DMSO.

COX-1 = molecular target: T2, COX-1 (Mus musculus, UniProt P22437); experiment: Macrophage assay (RAW264.7), COX-1; type: cell-based, murine; settings: Table 3; macrophage assay
T2 sequence (P22437 1-602): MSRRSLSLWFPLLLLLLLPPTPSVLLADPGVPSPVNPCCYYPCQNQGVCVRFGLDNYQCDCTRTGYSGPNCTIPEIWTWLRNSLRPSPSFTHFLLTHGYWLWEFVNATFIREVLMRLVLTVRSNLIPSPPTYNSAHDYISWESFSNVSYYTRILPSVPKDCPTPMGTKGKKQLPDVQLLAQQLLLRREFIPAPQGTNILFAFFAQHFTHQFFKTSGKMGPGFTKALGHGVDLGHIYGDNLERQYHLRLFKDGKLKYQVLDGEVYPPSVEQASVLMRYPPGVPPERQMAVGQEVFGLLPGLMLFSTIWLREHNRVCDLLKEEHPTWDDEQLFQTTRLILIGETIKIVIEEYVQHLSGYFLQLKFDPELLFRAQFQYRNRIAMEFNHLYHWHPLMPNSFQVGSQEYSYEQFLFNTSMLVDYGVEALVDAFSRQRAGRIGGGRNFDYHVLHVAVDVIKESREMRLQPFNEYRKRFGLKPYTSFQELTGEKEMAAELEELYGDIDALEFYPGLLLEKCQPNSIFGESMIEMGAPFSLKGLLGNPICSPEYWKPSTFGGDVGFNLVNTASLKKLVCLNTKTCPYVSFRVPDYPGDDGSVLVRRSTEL
Source text: Thus, NSAID derivatives that are identified as potentially useful in the methods described herein can be further tested using, for example, the RAW264.7 murine macrophage cell line. These cells are readily available (for example, from the American Type Culture Collection (ATCC), Manassas, Va., United States of America) and are easily cultured in large numbers. They normally express low levels of COX-1 and very low to undetectable levels of COX-2. Upon exposure to bacterial lipopolysaccharide (LPS), however, COX-2 levels increase dramatically over the ensuing 24 hour period, and the cells produce PGD2 and PGE2 from endogenous arachidonic acid stores (generally, ˜1 nmol/10^7 cells total PG formation). After LPS exposure, the addition of exogenous arachidonic acid results in the formation of additional PGD2 and PGE2 as a result of metabolism by the newly synthesized COX-2.
This system provides a number of approaches for testing the inhibitory potency of COX-2-selective ligands (e.g., inhibitors). In general, following LPS activation, cells can be treated for 30 minutes with the desired concentrations of candidate derivative(s) in DMSO. ^14C-arachidonic acid can be added, and the cells can be incubated for 15 minutes at 37° C. Product formation can be assessed following extraction and TLC separation of the culture medium. Alternatively, the effects of candidate derivatives on PG synthesis from endogenous arachidonic acid can be assessed by incubating cells with desired concentrations of candidate derivatives 30 minutes prior to LPS exposure. Following a 24-hour incubation, medium can be collected and extracted, and the amount of PGD2 and/or PGE2 can be assayed by gas chromatography-mass spectrometry, liquid chromatography-mass spectrometry, or ELISA.

ovine COX-1 = molecular target: T3, ovine COX-1 (Ovis aries, UniProt P05979); experiment: IC50 determinations using purified enzymes (TLC assay), COX-1; type: biochemical; settings: assayed against purified enzymes
T3 construct: can be purified from ovine seminal vesicles by standard procedures; from tissue; host or cells: ovine seminal vesicles
T3 sequence (P05979 25-600): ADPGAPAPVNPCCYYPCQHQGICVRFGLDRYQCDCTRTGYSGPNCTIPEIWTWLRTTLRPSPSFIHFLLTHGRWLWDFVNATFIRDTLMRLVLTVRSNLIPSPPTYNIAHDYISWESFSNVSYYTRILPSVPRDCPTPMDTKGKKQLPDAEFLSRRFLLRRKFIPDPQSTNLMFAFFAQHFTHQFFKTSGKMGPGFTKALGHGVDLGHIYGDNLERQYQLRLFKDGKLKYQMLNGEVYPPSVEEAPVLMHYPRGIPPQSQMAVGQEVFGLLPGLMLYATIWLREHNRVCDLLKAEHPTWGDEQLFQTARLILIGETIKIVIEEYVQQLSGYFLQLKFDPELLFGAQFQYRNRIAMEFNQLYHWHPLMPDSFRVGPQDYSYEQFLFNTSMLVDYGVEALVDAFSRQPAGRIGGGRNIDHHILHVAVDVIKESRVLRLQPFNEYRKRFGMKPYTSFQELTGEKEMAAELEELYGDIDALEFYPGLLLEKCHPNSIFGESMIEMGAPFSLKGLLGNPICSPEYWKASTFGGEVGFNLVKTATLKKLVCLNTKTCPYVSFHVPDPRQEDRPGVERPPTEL
Source text: as §1, §2

| Compound | Fluor. λem (Fluorescence in buffer) [nm] | Fluor. λex (Fluorescence in buffer) [nm] | IC50 (COX-2; Table 3) [µM] | IC50 (COX-1) [µM] | IC50 (ovine COX-1; Table 3) [µM] | IC50 (COX-2; Table 2) [µM] | IC50 (ovine COX-1; Table 2) [µM] |
| --- | --- | --- | --- | --- | --- | --- | --- |
| COc1ccc2c(c1)c(CC(=O)NCCNC(=O)c1cc3ccccc3oc1=O)c(C)n2C(=O)c1ccc(Cl)cc1 [Compound 27cc, N-{2-(Coumarin-3-carboxylamido)ethyl}-2-{1-(4-chlorobenzoyl)-5-methoxy-2-methyl-1H-indol-3-yl}acetamide] | 405 | 340 | 0.789 | > 25 | > 25 |  |  |
| CCN(CC)c1ccc2c(-c3ccc(S(=O)(=O)NCCOCCOCCOCCOCCC(=O)NCCCCNC(=O)Cc4c(C)n(C(=O)c5ccc(Cl)cc5)c5ccc(OC)cc45)cc3S(=O)(=O)[O-])c3ccc(=[N+](CC)CC)cc-3oc2c1 [Compound 27iii, 5-(N-(23-(1-(4-chlorobenoyl)-5-methoxy-2-methyl-1H-indol-3-yl)-15,22-dioxo-3,6,9,12-tetraoxa-16,21-diazatricosyl)sulfamoyl)-2-(6-(diethylamino)-3-(diethyliminio)-3H-xanthen-9-yl)benzenesulfonate] |  | 571 | 0.16 | > 5 | > 25 |  |  |
| COc1ccc2c(c1)c(CC(=O)NCCCNS(=O)(=O)c1cccc3c(N(C)C)cccc13)c(C)n2C(=O)c1ccc(Cl)cc1 [Compound 27y] | 497 | 343 | 0.075 | > 1 | > 25 |  |  |
| COc1ccc2c(c1)c(CC(=O)NCCCCNS(=O)(=O)c1cccc3c(N(C)C)cccc13)c(C)n2C(=O)c1ccc(Cl)cc1 [Compound 27z] | 504 | 324 | 0.067 | > 1 | > 25 |  |  |
| COc1ccc2c(c1)c(CC(=O)NCCCCCNC(=O)c1ccc(C(=O)[O-])c(C3=c4cc5c6c(c4Oc4c3cc3c7c4CCCN7CCC3)CCC[N+]=6CCC5)c1)c(C)n2C(=O)c1ccc(Cl)cc1 [Compound 27zz] |  |  | > 25 |  | > 25 |  |  |
| COc1ccc2c(c1)c(CCNC(=O)c1cc3ccccc3oc1=O)c(C)n2Cc1ccc(Br)cc1 [Compound 28b] |  |  | > 25 |  | > 25 |  |  |
| COc1ccc2c(c1)c(CCNC(=O)Cc1ccc(Nc3ccc([N+](=O)[O-])c4nonc34)cc1)c(C)n2Cc1ccc(Br)cc1 [Compound 28c] |  |  | > 25 |  | > 25 |  |  |
| COc1ccc2c(c1)c(CCNC(=O)c1ccc(C(=O)[O-])c(C3=c4cc5c6c(c4Oc4c3cc3c7c4CCCN7CCC3)CCC[N+]=6CCC5)c1)c(C)n2Cc1ccc(Br)cc1 [Compound 28e] |  |  | > 25 |  | > 25 |  |  |
| COC(=O)c1cc(-c2ccc(C)cc2)n(-c2ccc(S(=O)(=O)N(C)C)cc2)n1 [Compound 31] |  |  |  |  |  | > 25 | > 25 |
| Cc1ccc(C(=O)N2CCN(C(=O)c3ccc(C4=c5cc6c7c(c5Oc5c4cc4c8c5CCCN8CCC4)CCC[N+]=7CCC6)c(C(=O)[O-])c3)CC2)cc1 [Compound 32] |  |  | > 25 |  | > 25 |  |  |

Other lines, results leading:

| Fluor. λem (Fluorescence in buffer) [nm] | Fluor. λex (Fluorescence in buffer) [nm] | IC50 (COX-2; Table 3) [µM] | IC50 (COX-1) [µM] | IC50 (ovine COX-1; Table 3) [µM] | IC50 (COX-2; Table 2) [µM] | IC50 (ovine COX-1; Table 2) [µM] | Compound |
| --- | --- | --- | --- | --- | --- | --- | --- |
|  |  |  |  |  | 2.8 | > 25 | COC(=O)c1cc(-c2ccc(C)cc2)n(-c2ccc(S(C)(=O)=O)cc2)n1 [Compound 29b] |
|  |  |  |  |  | > 25 | > 25 | COSc1ccc(-n2nc(C(=O)OC)cc2-c2ccc(C)cc2)cc1 [Compound 29c] |
|  |  |  |  |  | > 25 | > 25 | Cc1ccc(-c2cc(C(=O)O)nn2-c2ccc(S(C)(=O)=O)cc2)cc1 [Compound 29d] |
|  |  |  |  |  | > 25 | > 25 | Cc1ccc(-c2cc(CCC(=O)NCCN)nn2-c2ccc(S(C)(=O)=O)cc2)cc1 [Compound 29f] |
|  |  | > 25 |  | > 25 |  |  | CC[N+](CC)=c1ccc2nc3c(cc(NC(=O)CCc4cc(-c5ccc(C)cc5)n(-c5ccc(S(C)(=O)=O)cc5)n4)c4ccccc43)oc-2c1 [Compound 29g] |
|  |  | > 25 |  | > 25 |  |  | Cc1ccc(-c2cc(CCC(=O)NCCNC(=O)c3ccc(C(=O)[O-])c(C4=c5cc6c7c(c5Oc5c4cc4c8c5CCCN8CCC4)CCC[N+]=7CCC6)c3)nn2-c2ccc(S(C)(=O)=O)cc2)cc1 [Compound 29h] |
|  |  |  |  |  | > 25 | > 25 | Cc1ccc(-c2cc(C(=O)O)nn2-c2ccc(S(N)(=O)=O)cc2)cc1 [Compound 30d] |
|  |  | > 25 |  | > 25 |  |  | Cc1ccc(-c2cc(CCC(=O)NCCNC(=O)c3ccc(C(=O)[O-])c(C4=c5cc6c7c(c5Oc5c4cc4c8c5CCCN8CCC4)CCC[N+]=7CCC6)c3)nn2-c2ccc(S(N)(=O)=O)cc2)cc1 [Compound 30e] |
|  |  | ≥ 25 | > 5 |  |  |  | CCN(CC)c1ccc2c(-c3ccc(S(=O)(=O)NCCOCCOCCOCCOCCC(=O)NCCNC(=O)CCc4cc(-c5ccc(C)cc5)n(-c5ccc(S(N)(=O)=O)cc5)n4)cc3S(=O)(=O)[O-])c3ccc(=[N+](CC)CC)cc-3oc2c1 [Compound 30f] |
